Assay results: patent US7572439B2, “Enzyme disruption of bacterial biofilms” (priority 2002, dated 2009)

Key:
[1] = tested on: Methicillin Sensitive S. aureus; test: Treatment of established infection in jugular vein catheterized mice; assay type: in vivo; conditions: Table 4, MSSA, Nafcillin (50) b.i.d. 4 days
Protocol: Jugular vein catheterized mice (Charles River Labs) were used. The mice were challenged through the tail vein with S. aureus (10^3-10^4CFU, a much lower dose than the 5×10^6 CFU or greater typically necessary to establish an infection in mice not catheterized). Treatment began four days post challenge when infection was established. Lysostaphin was administered through the indwelling catheter in a volume of 200 μ PBS (in the case of methicillin resistant S. aureus, nafcillin was added to the treatment). After the final treatment of the day, 50 μl of a lock solution (50% sterile glucose solution) with lysostaphin (and nafcillin, when used), added at the same concentration as used for treatment, was put in the catheters. Control mice received equal treatments with PBS and lock solution alone.
On the day following the last treatment the liver, heart and a portion of the catheter in the heart were harvested. The catheter portions were sonicated to release bacteria.

[2] = tested on: biofilms of S. aureus SA113; test: Kinetic effect on established biofilms: absorbance at 650 nm and safranin staining; assay type: cell-based; conditions: for effect on established biofilms (safranin): 400 μg/ml oxacillin or 800 μg/ml vancomycin, PBS or TSB, 24 hours; for absorbance of biofilms at 650 nM: as much as 400 μg/ml oxacillin or 800 μg/ml vancomycin in PBS; for absorbance of biofilms at 650 nM / effect on S. aureus biofilms (FIG. 8 legend): twenty four hours; for effect on absorbance of biofilms: in TSB, 24 hours (data not shown); for effect on S. aureus biofilms (FIG. 8 legend): PBS or bacterial media
Protocol: Oxacillin and vancomycin have often been used in antibiotic susceptibility studies of S. aureus biofilms. […] Twenty four-hour biofilms in polystyrene 96-well tissue culture plates were treated with serial dilutions of lysostaphin, oxacillin, and vancomycin (FIG. 7).
In order to examine the kinetic effect of lysostaphin, oxacillin and vancomycin on biofilms, the absorbance of established biofilms in a 96-well tissue culture plate was measured over time (0-3 hrs and 24 hrs). Tissue culture wells containing biofilms of S. aureus SA113 were incubated with serial dilutions of lysostaphin ([…]), oxacillin ([…]), or vancomycin ([…]) for 24 hours, and the absorbance at 650 nm was monitored every 20 minutes for the first 3 hours and then again at 24 hours. The absorbance of the lysostaphin-treated biofilms dropped from approximately 0.35 at time zero to 0.125 after 3 hours of treatment and dropped to near base line (0.04) by 24 hrs when treated with a dose of lysostaphin of 6.25 μg/ml in PBS (FIG. 7). […] Since antimicrobials like oxacillin or vancomycin are effective against actively metabolizing bacteria, a similar experiment was conducted but the biofilms were incubated with the three anti-microbials in bacterial media (TSB). Very similar results were also found when the assay was conducted in TSB rather than PBS.
The capacity of the three agents to disrupt S. aureus biofilms in polystyrene wells can be visualized by comparing the staining intensity of treated wells versus control (buffer-treated) wells.

SMILES: CCOc1ccc2ccccc2c1C(=O)N[C@@H]1C(=O)N2[C@@H]1SC(C)(C)[C@@H]2C(=O)O [Nafcillin, nafcillin, reference compound]
- S. aureus recovered, Heart [1]: 0 CFU

SMILES: Cc1onc(-c2ccccc2)c1C(=O)N[C@@H]1C(=O)N2[C@@H]1SC(C)(C)[C@@H]2C(=O)O [oxacillin]
- effect on established biofilms (safranin) [2]: no obvious effect
- absorbance of biofilms at 650 nM [2]: around 0.325
- effect on absorbance of biofilms [2]: little or no effect
- effect on absorbance of S. aureus biofilms over time (FIG. 7 legend) ([2]; lysostaphin 6.25 cg/ml, vancomycin 800 cg/ml, oxacillin 400 cg/ml): no effect
- effect on S. aureus biofilms (FIG. 8 legend) ([2]; oxacillin 1.6-400 cg/ml, vancomycin 3.2-800 cg/ml): no effect

SMILES: CN[C@H](CC(C)C)C(=O)N[C@H]1C(=O)N[C@@H](CC(N)=O)C(=O)N[C@H]2C(=O)N[C@H]3C(=O)N[C@H](C(=O)N[C@H](C(=O)O)c4cc(O)cc(O)c4-c4cc3ccc4O)[C@H](O)c3ccc(c(Cl)c3)Oc3cc2cc(c3O[C@@H]2O[C@H](CO)[C@@H](O)[C@H](O)[C@H]2O[C@H]2C[C@](C)(N)[C@H](O)[C@H](C)O2)Oc2ccc(cc2Cl)[C@H]1O [vancomycin]
- effect on established biofilms (safranin) [2]: no obvious effect
- absorbance of biofilms at 650 nM [2]: around 0.325
- effect on absorbance of biofilms [2]: little or no effect
- effect on absorbance of S. aureus biofilms over time (FIG. 7 legend) ([2]; lysostaphin 6.25 μg/ml, vancomycin 800 μg/ml, oxacillin 400 μg/ml): no effect
- effect on S. aureus biofilms (FIG. 8 legend) ([2]; oxacillin 1.6-400 μg/ml, vancomycin 3.2-800 μg/ml): no effect
